Test results taken from paper PMC12024264, “Frog Skin Peptides Hylin-a1, AR-23, and RV-23: Promising Tools Against Carbapenem-Resistant Escherichia coli and Klebsiella pneumoniae Infections” (Antibiotics, 2025).
Where no end group is shown, it is not given here.

Tests used:
[1] = tested on: K. pneumoniae 1711; settings: carbapenemase KPC (class A), rectal swab, N/D = no antibacterial activity detected; for MIC: microdilution, 37 °C, 20 h
Experimental: (§1) Each strain was grown in Mueller Hinton Broth (MH Broth), and 5 × 10^5 CFU/mL was used to evaluate antibacterial activity. Clinical carbapenem-resistant K. pneumoniae and E. coli isolates were collected at the AOU of Virology and Microbiology of the University of Campania “Luigi Vanvitelli”.
(§2) The antimicrobial activity of Hylin-a1, AR-23, and RV-23 was investigated using a microdilution assay as reported by the National Committee on Clinical Laboratory Standards (NCCLS) guidelines against a broad spectrum of Gram-negative bacteria. […] In 96-well, the standardized bacterial inoculum (5 × 10^5 colony forming units, CFU/mL) was inoculated together with AMPs and incubated at 37 °C for 20 h. After the time of incubation, optical density (OD) was measured at TECAN, and data were expressed as a percentage of inhibition. In addition to assessing the MIC values, the bactericidal effect was also studied as reported elsewhere.

[2] = tested on: E. coli 1441; settings: carbapenemase KPC (class A), rectal swab, N/D = no antibacterial activity detected; for MIC: microdilution, 37 °C, 20 h
Experimental: as §1, §2

[3] = tested on: E. coli 716; settings: carbapenemases IMP1, VIM, NDM (class B), urine, N/D = no antibacterial activity detected; for MIC: microdilution, 37 °C, 20 h
Experimental: as §1, §2

[4] = tested on: E. coli ATCC 25992; assay: Time-kill assay; format: cell-based, Escherichia coli
Experimental: This in vitro method allows for assessing the kinetics of bacterial killing by peptides over time. […] Specifically, at each time point, 50 μL aliquots of the bacterial–peptide mixtures were collected and plated on agar (see Materials and Methods for further details). Following incubation, colony-forming units (CFUs) were counted and the killing rate of each peptide concentration was calculated (Figure 2).
Figure 2 Evaluation of the kinetic-killing effect of Hylin-a1, AR-23, and RV-23 against K. pneumoniae and E. coli. […] Untreated bacteria was used as control negative (CTR- in black).
Using the same conditions as the MIC assay, a time–kill test was performed to monitor bacterial growth over time. […] Finally, bacterial colonies were counted, and the CFU/mL was calculated.

[5] = tested on: HaCaT cells; assay: MTT cytotoxicity assay on HaCaT keratinocytes; format: cell-based, human; settings: for 50% cytotoxic concentration (CC50): HaCaT keratinocytes, 20 h exposure, 0.39 to 100 μM; for CC50 obtained by the fitting of the curves: HaCaT, 20 h, Figure 1
Experimental: To evaluate their safety profile, cytotoxicity assays were performed on HaCaT keratinocytes. Cells were exposed for 20 h to peptides at doses ranging from 0.39 to 100 μM.
Figure 1 Dose–response curves for the AMPs against HaCaT cell line and CC50 (reported in μM), HillSlope, and R^2 values were obtained by the fitting of the curves. The viability effect of Hylin-a1, AR-23, and RV-23 was analyzed on HaCaT cells. The cell monolayer was treated with serial dilutions of peptides for 20 h. Untreated cells were used as a positive control, while dimethyl sulfoxide (DMSO) was used as a negative control. HillSlope: The measure of the steepness of the dose–response curve. […] R^2 (coefficient of determination) indicates how well the model fits the data. Ranges from 0 to 1, with 1 representing a perfect fit.
The cytotoxic effect of peptides was examined using 3-(4,5 dimethylthiazol-2-yl)-2,5-diphenyltetrazolium bromide (MTT), as previously described. Cell viability, expressed as a percentage, was calculated in relation to the viability of untreated cells (+). DMSO was used as negative control (−). The human keratinocyte cell line HaCaT (Cell Lines Service, CLS-, Eppelheim, Germany) was used as a cellular model to evaluate the peptides’ cytotoxicity. HaCaT cells were grown in Dulbecco’s Modified Eagle Medium (DMEM) with 4.5 g/L of glucose (Microtech, Naples, Italy) supplemented with an antibiotic solution 100× (Himedia, Naples, Italy) and 10% Fetal Bovine Serum (FBS, Microtech).

[6] = tested on: K. pneumoniae 311; settings: carbapenemase OXA-48 (class D), rectal swab, N/D = no antibacterial activity detected
Experimental: as §1, §2

[7] = tested on: E. coli; settings: against E. coli; ref 63 (Zhang et al.); cited from earlier work
Text: The activity of AR-23 and RV-23 against Gram-negative bacteria has been briefly described in previous studies. Zhang et al. evaluated the antibacterial effects of both peptides against E. coli. […] The authors attributed this enhanced activity to RV-23’s lower hydrophobicity and higher hydrophobic moment, factors strongly associated with reduced cytotoxicity and greater selectivity compared to AR-23. In contrast, the antibacteri ...

[8] = tested on: K. pneumoniae; assay: Checkerboard assay with meropenem; settings: checkerboard, 20 h, OD600

| Substance | MBC [1] | MIC [1] | MIC [2] | MIC [3] | bacterial killing in time-kill assay [4] | 50% cytotoxic concentration (CC50) [5] | CC50 obtained by the fitting of the curves [5] | MBC [2] | MBC [6] | MIC ([6]; microdilution, 37 °C, 20 h) | MBC [3] | time to significant reduction in bacterial viability / bactericidal effect [4] | MIC [7] | MIC of peptide in combination with meropenem [8] |
| --- | --- | --- | --- | --- | --- | --- | --- | --- | --- | --- | --- | --- | --- | --- |
| IFGAILPLALGALKNLIK-NH2 [Hylin-a1] | 50 µM | 25 µM | 50 µM | 25 µM | kills bacteria | 100 µM | 102.6 µM | – | – | – | – | – | – | – |
| RIGVLLARLPKLFSLFKLMGKKV-NH2 [RV-23] | 12.5 µM | 12.5 µM | 6.25 µM | 25 µM | – | 100 µM | 101.8 µM | 12.5 µM | 50 µM | 50 µM | 25 µM | ≤ 2 h | 3.33 µM | 3.125 µM |
